This note sets out measurements from patent publication US20150031733A1, “TETRAZOLINONE COMPOUNDS AND ITS USE” (SUMITOMO CHEMICAL COMPANY, LIMITED, priority 2012, published 2015).

For the first assay, the system named is common house mosquito (Culex pipiens pallens). Briefly: Common house mosquito larva mortality test in treated water. It is filed as in vivo. The settings on record: 24 h, active ingredient concentration 3.5 ppm in water, last instar larva, after 1 day, read-out: mortality of insects. The protocol: Each formulation containing the present Compounds […] prepared according to the above-mentioned Formulation examples was diluted with water so that the active ingredient concentration was set to 500 ppm and the testing drug solutions were prepared. The above-mentioned drug solutions 0.7 mL were added to an ion-exchange water 100 mL (an active ingredient concentration: 3.5 ppm). Twenty (20) last instar larva of common house mosquito (Culex pipiens pallens) were released into the solutions and after 1 day, the number of the dead insects was counted. The mortality of insects was calculated by the following equation. Mortality of insects(%)=(Number of dead insects/Number of tested insects)×100 The testing drug solutions to be used in this Test example were prepared by diluting the formulations prepared according to the above-mentioned Formulation examples with an ion-exchange water so that the active ingredient concentration was set to 500 ppm. The above-mentioned drug solutions 0.7 mL were added to an ion-exchange water 100 mL so that the active ingredient concentration was set to 3.5 ppm. Twenty (20) last instar larva of common house mosquito (Culex pipiens pallens) were released into the solutions and after […], the number of the dead insects was counted. The mortality of insects was calculated by the following equation. Mortality of insects(%)=(Number of dead insects/Number of tested insects)×100
Regarding `COc1cc(Cl)ccc1-c1csc(OCc2c(C)cccc2-n2nnn(C)c2=O)n1` [Compound T143, 2-{[1-(4,5-dihydro-4-methyl-5-oxo-1H-tetrazole-1-yl)-3-methylphenyl-2-yl]methyloxy}-4-(4-chloro-2-methoxyphenyl)thiazole], the pest or weed control at 3.5 ppm is 100%. On the same count and under the same terms, the figure for `CCc1ccccc1-c1csc(OCc2c(C)cccc2-n2nnn(C)c2=O)n1` [Compound T125, 2-{[1-(4,5-dihydro-4-methyl-5-oxo-1H-tetrazole-1-yl)-3-methylphenyl-2-yl]methyloxy}-4-(2-ethylphenyl)thiazole] is 100%.

The assay is the same for the next values; noted with them: 192 h, active ingredient concentration 3.5 ppm in water, last instar larva, after 8 day, read-out: mortality of insects.
For the molecule `Cn1nnn(-c2ccc(F)cc2COc2nc(-c3ccc(Br)cc3)cs2)c1=O` [Compound T147, 2-{[1-(4,5-dihydro-4-methyl-5-oxo-1H-tetrazole-1-yl)-4-fluorophenyl-2-yl]methyloxy}-4-(4-bromophenyl)thiazole], the pest or weed control at 3.5 ppm came to 100%.

On to `COc1ccc(C)cc1-c1csc(OCc2c(C)cccc2-n2nnn(C)c2=O)n1` [Compound T148, 2-{[1-(4,5-dihydro-4-methyl-5-oxo-1H-tetrazole-1-yl)-3-methylphenyl-2-yl]methyloxy}-4-(5-methyl-2-methoxyphenyl)thiazole], for which the pest or weed control at 3.5 ppm amounted to 100%. Still for that read-out and setting: the figure for `CCCCCCCc1cccc(-c2csc(OCc3c(C)cccc3-n3nnn(C)c3=O)n2)c1` [Compound T146, 2-{[1-(4,5-dihydro-4-methyl-5-oxo-1H-tetrazole-1-yl)-3-methylphenyl-2-yl]methyloxy}-4-(3-heptylphenyl)thiazole] is 100%; for `CCCCCCCc1ccccc1-c1csc(OCc2c(C)cccc2-n2nnn(C)c2=O)n1` [Compound T144, 2-{[1-(4,5-dihydro-4-methyl-5-oxo-1H-tetrazole-1-yl)-3-methylphenyl-2-yl]methyloxy}-4-(2-heptylphenyl)thiazole] it is 100%; for `Cc1cccc(-n2nnn(C)c2=O)c1COc1nc(-c2ccc(C(C)(C)C)cc2)cs1` [Compound T042, 2-{[1-(4,5-dihydro-4-methyl-5-oxo-1H-tetrazole-1-yl)-3-methylphenyl-2-yl]methyloxy}-4-[4-(1,1-dimethylethyl)phenyl]thiazole] it is 100%.

As to `Cc1ccccc1-c1csc(OCc2c(Br)cccc2-n2nnn(C)c2=O)n1` [Compound T091, 2-{[1-(4,5-dihydro-4-methyl-5-oxo-1H-tetrazole-1-yl)-3-bromophenyl-2-yl]methyloxy}-4-(2-methylphenyl)thiazole], the pest or weed control at 3.5 ppm is 100%. On to `CCc1cccc(-n2nnn(C)c2=O)c1COc1nc(-c2ccccc2C)cs1` [Compound T097, 2-{[1-(4,5-dihydro-4-methyl-5-oxo-1H-tetrazole-1-yl)-3-ethylphenyl-2-yl]methyloxy}-4-(2-methylphenyl)thiazole], for which the pest or weed control at 3.5 ppm came to 100%.

The test system of another assay is housefly (Musca domestica). The assay is described as follows: Housefly mortality test on treated filter paper. It is filed as in vivo. The settings on record: 500 ppm solution 0.7 mL on filter paper, female adult, after 24 hours. The procedure:
Each formulation containing the present Compounds […] prepared according to the above-mentioned Formulation examples was diluted with water so that the active ingredient concentration was set to 500 ppm and the testing drug solutions were prepared. […] Ten (10) individuals of female adult housefly (Musca domestica) was released into the polyethylene cup and the cup was covered with the lid. After 24 hours, the number of the dead insects was counted. The mortality of insects was calculated by the following equation. Mortality of insects(%)=(Number of dead insects/Number of tested insects)×100
`Cc1ccc(-c2csc(OCc3c(C)cccc3-n3nnn(C)c3=O)n2)cc1` [Compound T039, 2-{[1-(4,5-dihydro-4-methyl-5-oxo-1H-tetrazole-1-yl)-3-methylphenyl-2-yl]methyloxy}-4-(4-methylphenyl)thiazole] showed a mortality of insects of 100%. Same read-out and setting: as for `Cc1cccc(-n2nnn(C)c2=O)c1COc1nc(-c2ccc(I)cc2)cs1` [Compound T033, 2-{[1-(4,5-dihydro-4-methyl-5-oxo-1H-tetrazole-1-yl)-3-methylphenyl-2-yl]methyloxy}-4-(4-iodophenyl)thiazole], the figure is 100%.

The subject of another assay is cabbage moth (Plutella xylostella). The assay is described as follows: Cabbage moth mortality test on sprayed cabbage. The settings on record: 500 ppm, 20 mL/cup sprayed on cabbage, three instar larval stages, after 5 days. It is filed as in vivo. The protocol: The testing drug solutions to be used in this Test example were prepared by diluting the formulations prepared according to the above-mentioned Formulation examples with an ion-exchange water so that the active ingredient concentration was set to 500 ppm. Cabbage (green ball) was planted in a polyethylene cup and was grown until the third true leaf or the fourth true leaf was developed. To the cabbage (Brassicae oleracea) was sprayed the above-mentioned testing solutions in a ratio of 20 mL/cup. After the drug solutions were dried, to a polyethylene cup (diameter 5.5 cm) covered with a filter paper on the bottom, the cabbage cut out from the root was installed and five heads of cabbage moth (Plutella xylostella) at the three instar larval stages were released into the cup and the cup was covered with the lid. The cup was held at 25° C. and after 5 days, the number of the surviving insects was counted and the mortality of insects was calculated by the following equation. Mortality of insects(%)=(Number of dead insects/Number of tested insects)×100
The molecule `CCCCc1ccc(-c2csc(OCc3c(C)cccc3-n3nnn(C)c3=O)n2)cc1` [Compound T041, 2-{[1-(4,5-dihydro-4-methyl-5-oxo-1H-tetrazole-1-yl)-3-methylphenyl-2-yl]methyloxy}-4-(4-butylphenyl)thiazole] yielded a mortality of insects of 80%. The same measure, in the same setting: the figure for `Cc1cccc(-n2nnn(C)c2=O)c1COc1nc(-c2ccc(Br)cc2F)cs1` [Compound T034, 2-{[1-(4,5-dihydro-4-methyl-5-oxo-1H-tetrazole-1-yl)-3-methylphenyl-2-yl]methyloxy}-4-(4-bromo-2-fluorophenyl)thiazole] is 80%; for `CCc1ccccc1-c1csc(OCc2c(C)cccc2-n2nnn(C)c2=O)n1` [Compound T125, 2-{[1-(4,5-dihydro-4-methyl-5-oxo-1H-tetrazole-1-yl)-3-methylphenyl-2-yl]methyloxy}-4-(2-ethylphenyl)thiazole] it is 80%; for `Cc1cccc(-n2nnn(C)c2=O)c1COc1nc(-c2cccc(Br)c2)cs1` [Compound T145, 2-{[1-(4,5-dihydro-4-methyl-5-oxo-1H-tetrazole-1-yl)-3-methylphenyl-2-yl]methyloxy}-4-(3-bromophenyl)thiazole] it is 80%. The same measure, in the same setting: as for `Cc1cccc(-n2nnn(C)c2=O)c1COc1nc(-c2ccc(C(C)(C)C)cc2)cs1` [Compound T042, 2-{[1-(4,5-dihydro-4-methyl-5-oxo-1H-tetrazole-1-yl)-3-methylphenyl-2-yl]methyloxy}-4-[4-(1,1-dimethylethyl)phenyl]thiazole], the figure is 80%.

With `Cc1cccc(-n2nnn(C)c2=O)c1COc1nc(-c2c(F)c(F)c(F)c(F)c2F)cs1` [Compound T036, 2-{[1-(4,5-dihydro-4-methyl-5-oxo-1H-tetrazole-1-yl)-3-methylphenyl-2-yl]methyloxy}-4-(2,3,4,5,6-pentafluorophenyl)thiazole], the mortality of insects is given as 80%. Same read-out and setting: the figure for `Cc1ccccc1-c1csc(OCc2c(Br)cccc2-n2nnn(C)c2=O)n1` [Compound T091, 2-{[1-(4,5-dihydro-4-methyl-5-oxo-1H-tetrazole-1-yl)-3-bromophenyl-2-yl]methyloxy}-4-(2-methylphenyl)thiazole] is 80%.
